Key:
Assay type in all cases: cell-based
[1] = biological target: T1, hP2X3 (human Purinergic P2X receptors subtype 3) (Homo sapiens, UniProt P56373); assay: FLIPR FLUO-4 AM calcium assay, α,β-methylene-ATP as agonist (Method 3); details: hP2X3-expressing RLE cells, 500 nM α,β-methylene-ATP, read-out: Human P2X3 IC50 (μM) Method 3
T1 construct: expressed in transfected cells
T1 sequence (P56373 1-397): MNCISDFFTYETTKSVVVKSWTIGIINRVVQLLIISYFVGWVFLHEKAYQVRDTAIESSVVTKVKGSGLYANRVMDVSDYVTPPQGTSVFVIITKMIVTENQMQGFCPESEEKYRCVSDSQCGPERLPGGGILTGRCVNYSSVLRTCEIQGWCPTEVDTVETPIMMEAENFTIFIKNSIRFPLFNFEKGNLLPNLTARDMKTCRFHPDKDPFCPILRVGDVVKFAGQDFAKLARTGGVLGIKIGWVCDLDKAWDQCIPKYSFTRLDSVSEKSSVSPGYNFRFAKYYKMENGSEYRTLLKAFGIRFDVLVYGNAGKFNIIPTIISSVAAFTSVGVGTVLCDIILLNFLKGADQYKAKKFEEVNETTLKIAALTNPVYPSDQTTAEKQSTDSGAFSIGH
Protocol: (§1) The antagonist properties of compounds in the present invention were assayed as inhibitors of intracellular calcium increase induced by activation of hP2X3 (human Purinergic P2X receptors subtype 3, accession number AB016608 for clone A and accession number NM_002559 for clone B), expressed in RLE cells (rat liver […], ATCC. The RLE/hP2X3 cells were grown in William's medium 1× (Gibco, 12551-032), supplemented with 10% Fetal bovine serum (Wisent, 090850), 2 mM L-Glutamine (Wisent, 609-065-EL), and 600 μg/mL Geneticin G-418 (Wisent, 61234) in a humidified incubator (5% CO2 and 37° C.).
In a third assay, hP2X3-expressing cells were maintained in culture and the day before the experiment, the cells were plated in 384-black polylysine coated plates (Becton/Dickinson, 356663) at 8000 cells/well in 50 μL/well in William's medium without Geneticin, and then placed in an incubator for 24 hr. On the day of the experiment, the cells and test compounds were prepared as follows. […] Experiments were initiated by measuring a baseline fluorescence reading for 10 sec, followed by adding 12.5 μL of compounds and data sampling for a total 280 seconds. […] During entire experiment, fluorescence emission was read by the FLIPR on board CCD camera using filter with emission wavelength of 520-545 nm. […] Hill coefficients and % inhibitions can also be determined.

[2] = biological target: T1, hP2X3 (human Purinergic P2X receptors subtype 3); assay: Fluo-4 calcium mobilization assay on FDSS7000, ATP as agonist (Method 1); details: RLE cells stably expressing hP2X3; 2 uM ATP; 20 min preincubation; read-out: Human P2X3 IC50 (μM) Method 1
Protocol: as §1
(§2) In one assay, Fluo-4 assay on FDSS7000 (Hamamatsu) was performed using cryopreserved RLE cells stably expressing hP2X3 plated in 384 well plates, 24 hr before the experiment at a density appropriate for obtaining the desired final confluence. After processing the cell plates with Fluo-4 and performing a subsequent incubation followed by washing steps, a double addition was carried out. The first addition included the test compounds diluted in HBSS buffer containing 2 mM CaCl2 preincubated for 20 min before a second addition. The second addition included 2 uM of ATP. Calcium mobilization was measured with the FDSS7000 over a time lapse of 3 min, and fluorescent counts were exported for analysis. […] Hill coefficients and % inhibitions can also be determined.

[3] = biological target: T1, hP2X3 (human Purinergic P2X receptors subtype 3); assay: Fluo-4 calcium mobilization assay, α,β methylene-ATP as agonist (Method 2); details: RLE cells stably expressing hP2X3; α,β methylene-ATP instead of ATP; read-out: Human P2X3 IC50 (μM) Method 2
Protocol: as §1
as §2, with “The second addition included 2 uM of ATP.” left out, “determined. […]” for “determined.”

IC50 [1] [µM] | IC50 [2] [µM] | IC50 [3] [µM] | Compound
0.016 | 0.007 | 0.014 | CNC(=O)c1cc(F)c(-c2nc3cc(C)ccc3n2C[C@H]2CN(C(=O)OC)CCO2)c(F)c1 [Example 3, (S)-methyl 2-((2-(2,6-difluoro-4-(methylcarbamoyl)phenyl)-5-methyl-1H-benzo[d]imidazol-1-yl)methyl)morpholine-4-carboxylate]
0.016 | – | – | CNC(=O)c1cc(F)c(-c2nc3cc(C)ccc3n2C[C@@H]2CN(C(=O)OC)CCO2)c(F)c1 [Example 5, (R)-methyl 2-((2-(2,6-difluoro-4-(methylcarbamoyl)phenyl)-5-methyl-1H-benzo[d]imidazol-1-yl)methyl)morpholine-4-carboxylate]

Reference: patent publication US8530467B2, “Benzoimidazole compounds and uses thereof” (Neomed Institute, priority 2009, dated 2013)
